Source: patent US11028079B2 (ConverGene LLC, priority 2015, dated 2021)

Molecular target: T1, BRD4 bromodomains (Homo sapiens, UniProt O60885)
T1 construct: fused on or other part: T7 phage capsid protein (phage-display fusion; the phage DNA is read out by qPCR)
Assay: BROMOscan bromodomain competition binding assay (DiscoveRx)
Settings: Kd from 11 compound concentrations ranging from 0 to 10 μM, read-out: BROMOscan Relative Activity
Method: Bromodomain assays were conducted to measure interactions between certain compounds and bromodomains.
The assays were conducted according to BROMOscan protocol from Discover Rx. Briefly, BRD4 bromodomains expressed as a fusion capsid protein of T7 phage were bound to acetylated peptide ligand on a solid phase and competition bindings were performed. T7 phage strains displaying bromodomains were grown in parallel in 24-well blocks in an E. coli host derived from the BL21 strain. E. coli were grown to log-phase and infected with T7 phage from a frozen stock (multiplicity of infection=0.4) and incubated with shaking at 32° C. until lysis (90-150 minutes). The lysates were centrifuged (5,000×g) and filtered (0.2 μm) to remove cell debris. […] The liganded beads were blocked with excess biotin and washed with blocking buffer (SeaBlock (Pierce), 1% BSA, 0.05% Tween 20, 1 mM DTT) to remove unbound ligand and to reduce non-specific phage binding. […] Test compounds were prepared as 1000× stocks in 100% DMSO and subsequently diluted 1:10 in monoethylene glycol (MEG) to create stocks at 100× the screening concentration (resulting stock solution is 10% DMSO/90% MEG). The compounds were then diluted directly into the assays such that the final concentration of DMSO and MEG were 0.1% and 0.9%, respectively. All reactions were performed in polystyrene 96-well plates in a final volume of 0.135 ml. […] The bromodomain concentration in the eluates was measured by qPCR. Data was collected at 11 compound concentrations ranging from 0 to 10 μM. Kd values were then derived from a standard dose-response curve generated with Hill equation (Hill Slope was set to ˜1) and a non-linear least square fit with the Levenberg-Marquardt algorithm. Response=Background+Signal−Background/1+(Kd Hill Slope/Dose Hill Slope)

Compound | Kd [nM]
CN(C)CCN1CCN(c2nc(NCc3cccc(Cl)c3)c3cc(-c4cn[nH]c4)ccc3n2)CC1 [Example 64, N-(3-chlorobenzyl)-2-(4-(2-(dimethylamino)ethyl)piperazin-1-yl)-6-(1H-pyrazol-4-yl)quinazolin-4-amine] | > 5000
Cc1n[nH]c(C)c1-c1ccc2nc(N3CCN(CCN(C)C)CC3)nc(NCc3cccc(Cl)c3)c2c1 [Example 65, N-(3-chlorobenzyl)-6-(3,5-dimethyl-1H-pyrazol-4-yl)-2-(4-(2-(dimethylamino)ethyl)piperazin-1-yl)quinazolin-4-amine] | 500 to 5000
CN(C)CCN1CCN(c2nc(NCc3cccc(Cl)c3)c3cc(-c4ccc(=O)n(C)c4)ccc3n2)CC1 [Example 66, 5-(4-((3-chlorobenzyl)amino)-2-(4-(2-(dimethylamino)ethyl)piperazin-1-yl)quinazolin-6-yl)-1-methylpyridin-2(1H)-one] | < 500
CN(C)CCN1CCN(c2nc(NCc3cccc(Cl)c3)c3cc(-c4ccc(O)nc4)ccc3n2)CC1 [Example 67, 5-(4-((3-chlorobenzyl)amino)-2-(4-(2-(dimethylamino)ethyl)piperazin-1-yl)quinazolin-6-yl)pyridin-2-ol] | 500 to 5000
Cc1noc(C)c1-c1ccc2nc(N3CCN(CCN(C)C)CC3)nc(O)c2c1 [Example 68, 2-(4-(2-(dimethylamino)ethyl)piperazin-1-yl)-6-(3,5-dimethylisoxazol-4-yl)quinazolin-4-ol] | 500 to 5000
Cc1noc(C)c1-c1ccc2nc(-c3c(C)noc3C)nc(NCc3cccs3)c2c1 [Example 69, 2,6-bis(3,5-dimethylisoxazol-4-yl)-N-(thiophen-2-ylmethyl)quinazolin-4-amine] | 500 to 5000
Cc1noc(C)c1-c1ccc2nc(-c3c(C)noc3C)nc(NCc3cccc(Cl)c3)c2c1 [Example 70, N-(3-chlorobenzyl)-2,6-bis(3,5-dimethylisoxazol-4-yl)quinazolin-4-amine] | 500 to 5000
Cc1noc(C)c1-c1ccc2nc(N3CCN(CCN(C)C)CC3)nc(NCc3cccs3)c2c1 [Example 71, 2-(4-(2-(dimethylamino)ethyl)piperazin-1-yl)-6-(3,5-dimethylisoxazol-4-yl)-N-(thiophen-2-ylmethyl)quinazolin-4-amine] | < 500
COc1ccccc1CNc1nc(N2CCN(CCN(C)C)CC2)nc2ccc(-c3c(C)noc3C)cc12 [Example 72, 2-(4-(2-(dimethylamino)ethyl)piperazin-1-yl)-6-(3,5-dimethylisoxazol-4-yl)-N-(2-methoxybenzyl)quinazolin-4-amine] | < 500
COc1cccc(CNc2nc(N3CCN(CCN(C)C)CC3)nc3ccc(-c4c(C)noc4C)cc23)c1 [Example 73, 2-(4-(2-(dimethylamino)ethyl)piperazin-1-yl)-6-(3,5-dimethylisoxazol-4-yl)-N-(3-methoxybenzyl)quinazolin-4-amine] | < 500
Cc1noc(C)c1-c1ccc2nc(N3CCN(CCN(C)C)CC3)nc(NCc3ccccc3Cl)c2c1 [Example 74, N-(2-chlorobenzyl)-2-(4-(2-(dimethylamino)ethyl)piperazin-1-yl)-6-(3,5-dimethylisoxazol-4-yl)quinazolin-4-amine] | < 500
Cc1noc(C)c1-c1ccc2nc(N3CCN(CCN(C)C)CC3)nc(NCc3cccc(Br)c3)c2c1 [Example 75, N-(3-bromobenzyl)-2-(4-(2-(dimethylamino)ethyl)piperazin-1-yl)-6-(3,5-dimethylisoxazol-4-yl)quinazolin-4-amine] | < 500
Cc1noc(C)c1-c1ccc2nc(N3CCN(CCN(C)C)CC3)nc(NCc3ccccc3F)c2c1 [Example 76, 2-(4-(2-(dimethylamino)ethyl)piperazin-1-yl)-6-(3,5-dimethylisoxazol-4-yl)-N-(2-fluorobenzyl)quinazolin-4-amine] | < 500

More lines, now with the values ahead:

Kd [nM] | Compound
< 500 | Cc1noc(C)c1-c1ccc2nc(N3CCN(CCN(C)C)CC3)nc(NCc3cccc(F)c3)c2c1 [Example 77, 2-(4-(2-(dimethylamino)ethyl)piperazin-1-yl)-6-(3,5-dimethylisoxazol-4-yl)-N-(3-fluorobenzyl)quinazolin-4-amine]
500 to 5000 | Cc1oncc1-c1ccc2nc(N3CCN(CCN(C)C)CC3)nc(NCc3cccc(Cl)c3)c2c1 [Example 78, N-(3-chlorobenzyl)-2-(4-(2-(dimethylamino)ethyl)piperazin-1-yl)-6-(5-methylisoxazol-4-yl)quinazolin-4-amine]
500 to 5000 | Cc1noc(C)c1-c1ccc2nc(N3CCN(CCN(C)C)CC3)nc(NCc3ccco3)c2c1 [Example 79, 2-(4-(2-(dimethylamino)ethyl)piperazin-1-yl)-6-(3,5-dimethylisoxazol-4-yl)-N-(furan-2-ylmethyl)quinazolin-4-amine]
< 500 | Cc1noc(C)c1-c1ccc2nc(N3CCN(CCN(C)C)CC3)nc(NCc3cccnc3)c2c1 [Example 80, 2-(4-(2-(dimethylamino)ethyl)piperazin-1-yl)-6-(3,5-dimethylisoxazol-4-yl)-N-(pyridin-3-ylmethyl)quinazolin-4-amine]
< 500 | Cc1noc(C)c1-c1ccc2nc(N3CCN(CCN(C)C)CC3)nc(NCc3cncc(Cl)c3)c2c1 [Example 81, N-((5-chloropyridin-3-yl)methyl)-2-(4-(2-(dimethylamino)ethyl)piperazin-1-yl)-6-(3,5-dimethylisoxazol-4-yl)quinazolin-4-amine]
< 500 | Cc1noc(C)c1-c1ccc2nc(N3CCN(CCN(C)C)CC3)nc(NCc3cc(Cl)ccn3)c2c1 [Example 82, N-((4-chloropyridin-2-yl)methyl)-2-(4-(2-(dimethylamino)ethyl)piperazin-1-yl)-6-(3,5-dimethylisoxazol-4-yl)quinazolin-4-amine]
< 500 | Cc1noc(C)c1-c1ccc2nc(N3CCN(CCN(C)C)CC3)nc(NCc3cncc(F)c3)c2c1 [Example 83, 2-(4-(2-(dimethylamino)ethyl)piperazin-1-yl)-6-(3,5-dimethylisoxazol-4-yl)-N-((5-fluoropyridin-3-yl)methyl)quinazolin-4-amine]
< 500 | Cc1ccncc1CNc1nc(N2CCN(CCN(C)C)CC2)nc2ccc(-c3c(C)noc3C)cc12 [Example 84, 2-(4-(2-(dimethylamino)ethyl)piperazin-1-yl)-6-(3,5-dimethylisoxazol-4-yl)-N-((4-methylpyridin-3-yl)methyl)quinazolin-4-amine]
< 500 | Cc1noc(C)c1-c1ccc2nc(N3CCN(CCN(C)C)CC3)nc(N(C)Cc3cccc(Cl)c3)c2c1 [Example 85, N-(3-chlorobenzyl)-2-(4-(2-(dimethylamino)ethyl)piperazin-1-yl)-6-(3,5-dimethylisoxazol-4-yl)-N-methylquinazolin-4-amine]
500 to 5000 | CN(C)CCN1CCN(c2nc(NCc3cccc(Cl)c3)c3cc(-c4cnc(O)c(F)c4)ccc3n2)CC1 [Example 86, 5-(4-((3-chlorobenzyl)amino)-2-(4-(2-(dimethylamino)ethyl)piperazin-1-yl)quinazolin-6-yl)-3-fluoropyridin-2-ol]
< 500 | Cc1csc(CNc2nc(N3CCN(CCN(C)C)CC3)nc3ccc(-c4c(C)noc4C)cc23)c1 [Example 87, 2-(4-(2-(dimethylamino)ethyl)piperazin-1-yl)-6-(3,5-dimethylisoxazol-4-yl)-N-((4-methylthiophen-2-yl)methyl)quinazolin-4-amine]
< 500 | Cc1ccc(CNc2nc(N3CCN(CCN(C)C)CC3)nc3ccc(-c4c(C)noc4C)cc23)s1 [Example 88, 2-(4-(2-(dimethylamino)ethyl)piperazin-1-yl)-6-(3,5-dimethylisoxazol-4-yl)-N-((5-methylthiophen-2-yl)methyl)quinazolin-4-amine]
< 500 | Cc1noc(C)c1-c1ccc2nc(N3CCN(CCN(C)C)CC3)nc(NC(C)c3cccs3)c2c1 (centres unmarked) [Example 89, 2-(4-(2-(dimethylamino)ethyl)piperazin-1-yl)-6-(3,5-dimethylisoxazol-4-yl)-N-(1-(thiophen-2-yl)ethyl)quinazolin-4-amine]
< 500 | Cc1noc(C)c1-c1ccc2nc(N3CCN(CCN(C)C)CC3)nc(NC(C)c3cccc(Cl)c3)c2c1 (centres unmarked) [Example 90, N-(1-(3-chlorophenyl)ethyl)-2-(4-(2-(dimethylamino)ethyl)piperazin-1-yl)-6-(3,5-dimethylisoxazol-4-yl)quinazolin-4-amine]
< 500 | Cc1cc(-c2ccc3nc(N4CCN(CCN(C)C)CC4)nc(NCc4cccc(Cl)c4)c3c2)cnc1O [Example 91, 5-(4-((3-chlorobenzyl)amino)-2-(4-(2-(dimethylamino)ethyl)piperazin-1-yl)quinazolin-6-yl)-3-methylpyridin-2-ol]
< 500 | Cc1noc(C)c1-c1ccc2nc(N3CCN(CCN(C)C)CC3)nc(NCc3ccccc3)c2c1 [Example 92, N-benzyl-2-(4-(2-(dimethylamino)ethyl)piperazin-1-yl)-6-(3,5-dimethylisoxazol-4-yl)quinazolin-4-amine]
